# Reference: patent publication US7820708B2, “Carboxamides” (Bayer CropScience AG, priority 2005, dated 2010)
# How the values were obtained:
# [1] = tested on: Pyrenophora teres; assay: Pyrenophora teres test (barley)/protective; format: in vivo; conditions: protective, application rate 500 ppm, evaluation 8 days after inoculation
# Protocol: (§1) To produce a suitable preparation of active compound, 1 part by weight of active compound is mixed with the stated amounts of solvent and emulsifier and the concentrate is diluted with water to the desired concentration.
# To test for protective activity, young plants are sprayed with the active compound preparation at the stated application rate. After the spray coating has dried on, the plants are sprayed with a conidia suspension of Pyrenophora teres. The plants remain in an incubation cabin at 20° C. and 100% relative atmospheric humidity for 48 hours.
# The plants are then placed in a greenhouse at a temperature of about 20° C. and a relative atmospheric humidity of about 80%.
# Evaluation is carried out 8 days after the inoculation. 0% means an efficacy which corresponds to that of the control, whereas an efficacy of 100% means that no infection is observed.
# [2] = tested on: Uromyces appendiculatus; assay: Uromyces test (bean)/protective; format: in vivo; conditions: protective, application rate 100 ppm, evaluation 10 days after inoculation
# Protocol: To produce a suitable preparation of active compound, 1 part by weight of active compound is mixed within the stated amounts of solvents and emulsifier and the concentrate is diluted with water to the desired concentration.
# To test for protective activity, the young plants are sprayed with the active compound preparation at the stated application rate. After the spray coating has dried on, the plants are inoculated with an aqueous spore suspension of the bean rust pathogen Uromyces appendiculatus and then remain in an incubation cabin at about 20° C. and 100% relative atmospheric humidity for 1 day. The plants are then placed in a greenhouse at about 21° C. and a relative atmospheric humidity of about 90%.
# Evaluation is carried out 10 days after the inoculation. 0% means an efficiency which corresponds to that of the control, whereas an efficacy of 100% means that no infection is observed.
# [3] = log P determination by HPLC on reversed-phase column (C 18), EEC Directive 79/831 Annex V.A8; format: physicochemical; conditions: reversed-phase HPLC column (C 18); pH 2.3; 0.1% aqueous phosphoric acid and acetonitrile; 43° C.
# Protocol: The log P values given in the Tables and Preparation Examples above are determined in accordance with EEC Directive 79/831 Annex V.A8 by HPLC (High Performance Liquid Chromatography) on a reversed-phase column (C 18). Temperature: 43° C. The determination is carried out in the acidic range at pH 2.3 using the mobile phases 0.1% aqueous phosphoric acid and acetonitrile; linear gradient from 10% acetonitrile to 90% acetonitrile. Calibration is carried out using unbranched alkan-2-ones (having 3 to 16 carbon atoms) with known log P values (determination of the log P values by the retention times using linear interpolation between two successive alkanones).
# [4] = tested on: Alternaria solani; assay: Alternaria test (tomato)/protective; format: in vivo; conditions: protective, application rate 1000 ppm, evaluation 7 days after inoculation
# Protocol: as §1
# To test for protective activity, young tomato plants are sprayed with the active compound preparation at the stated application rate. 1 day after the treatment, the plants are inoculated with a spore suspension of Alternaria solani and then remain at 100% relative atmospheric humidity and 20° C. for 24 h. The plants then remain at 96% relative atmospheric humidity and a temperature of 20° C.
# Evaluation is carried out 7 days after the inoculation. 0% means an efficacy which corresponds to that of the control, whereas an efficacy of 100% means that no infection is observed.
chromatographic logP [3],SMILES,Efficacy in % [1] [%],Efficacy in % [2] [%],Efficacy in % [4] [%]
3.22,Cc1nn(C)c(F)c1C(=O)N(c1ccccc1-c1ccc(Cl)cc1)C1CC1 [Compound 6],80,93,–
5.33,"CC(C)CC(C)c1ccccc1NC1CC1 (stereo not drawn) [III-1, N-cyclopropyl-2-(1,3-dimethylbutyl)aniline]",–,–,–
3.89,"CC(C)CC(C)c1ccccc1N(C(=O)c1cn(C)nc1C(F)F)C1CC1 (stereo not drawn) [Compound 3, N-cyclopropyl-3-(difluoromethyl)-N-[2-(1,3-dimethylbutyl)phenyl]-1-methyl-1H-pyrazol-4-carboxamide]",–,100,94
3.74,Cc1nn(C)c(F)c1C(=O)N(c1ccccc1C(C)CC(C)C)C1CC1 (stereo not drawn) [Compound 2],–,100,100
3.38,Cn1cc(C(=O)N(c2ccccc2-c2ccc(Cl)cc2)C2CC2)c(C(F)F)n1 [Compound 7],95,–,89
3.74,Cc1nn(C)c(F)c1C(=O)N(c1ccc(F)cc1-c1ccc(Cl)c(Cl)c1)C1CC1 [Compound 10],95,–,89
3.85,Cn1cc(C(=O)N(c2ccc(F)cc2-c2ccc(Cl)c(Cl)c2)C2CC2)c(C(F)F)n1 [Compound 11],–,–,94
